Laboratory results published in patent publication US7625872B2, “Branched immunomodulatory compounds and methods of using the same” (Dynavax Technologies Corporation, priority 2002, dated 2009).

Experiments:
human PBMC cells = test: human PBMC assay: IFN-γ and IFN-α in cell-free medium by ELISA; assay type: cell-based; settings: for IFN-α (pg/ml) 17240 / IFN-γ (pg/ml) 17240: donor 17240; for IFN-α (pg/ml) 17240 / IFN-γ (pg/ml) 17240 / IFN-α (pg/ml) 17241 / IFN-γ (pg/ml) 17241 / IFN-α (pg/ml) 17242 / IFN-γ (pg/ml) 17242 / IFN-α (pg/ml) 17243 / IFN-γ (pg/ml) 17243 / IFN-α (pg/ml) mean: test samples 20 μg/ml, '+ PLGA' = premixed with 100 μg/ml cPLGA; for IFN-α (pg/ml) 17240 / IFN-γ (pg/ml) 17240 / IFN-α (pg/ml) 17241 / IFN-γ (pg/ml) 17241 / IFN-α (pg/ml) 17242 / IFN-γ (pg/ml) 17242 / IFN-α (pg/ml) 17243 / IFN-γ (pg/ml) 17243 / IFN-α +PLGA / IFN-γ +PLGA / IFN-γ −PLGA / IFN-α (pg/ml) mean / IFN-α −PLGA: 24 hours; for IFN-α (pg/ml) 17240 / IFN-γ (pg/ml) 17240 / IFN-α (pg/ml) 17241 / IFN-γ (pg/ml) 17241 / IFN-α (pg/ml) 17242 / IFN-γ (pg/ml) 17242 / IFN-α (pg/ml) 17243 / IFN-γ (pg/ml) 17243: SAC 1/5000 dilution; for IFN-α (pg/ml) 17241 / IFN-γ (pg/ml) 17241: donor 17241; for IFN-α (pg/ml) 17242 / IFN-γ (pg/ml) 17242: donor 17242; for IFN-α (pg/ml) 17243 / IFN-γ (pg/ml) 17243: donor 17243; for IFN-α +PLGA / IFN-γ +PLGA / IFN-γ −PLGA / IFN-α −PLGA: mean results (Table 4; unit in Table 3); for IFN-α +PLGA / IFN-γ +PLGA: 20 μg/ml formulated with 100 μg/ml cPLGA; for IFN-γ −PLGA / IFN-α −PLGA: compound alone, 20 μg/ml; for IFN-α (pg/ml) mean: mean of 4 donors
Experimental: Peripheral blood was collected from volunteers by venipuncture using heparinized syringes. Blood was layered onto a FICOLL® (Amersham Pharmacia Biotech) cushion and centrifuged. PBMCs, located at the FICOLL® interface, were collected, then washed twice with cold phosphate buffered saline (PBS). The cells were resuspended and cultured in 48 well plates or 96-well plates at 2×10^6 cells/mL at 37° C. in RPMI 1640 with 10% heat-inactivated human AB serum plus 50 units/mL penicillin, 50 μg/mL streptomycin, 300 μg/mL glutamine, 1 mM sodium pyruvate, and 1×MEM non-essential amino acids (NEAA).
The cells were cultured in the absence of test samples, in the presence of test samples at 20 μg/ml (0.5 OD/ml), or in the presence of test samples at 20 μg/ml premixed with 100 μg/ml cationic poly(lactic acid, glycolic acid) microcarriers (cPLGA; see infra) (when used) for 24 hours. Cell-free medium was then collected from each well and assayed for IFN-γ and IFN-α concentrations. SAC (Pansorbin CalBiochem, 1/5000 dilution) was used as a positive control. SAC is Staph. aureus (cowan) cell material.
IFN-γ and IFN-α were assayed using CYTOSCREEN™ ELISA kits from BioSource International, Inc., according to the manufacturer's instructions.
Compound B07 (see Example 1, above) was tested for immunomodulatory activity in human PBMC cells as outlined in Example 9, above. For comparison purposes, the immunomodulatory activities of a variety of polynucleotides and chimeric molecules containing spacer moieties were also assayed. The syntheses and features of immunomodulatory chimeric molecules like compounds C-101, C-124, and C-125 are described in U.S. patent application Ser. No. 10/176,883 entitled, “Chimeric Immunomodulatory Compounds and Methods of Using the Same,” filed on Jun. 21, 2002, herein incorporated by reference. All nucleotide linkages and linkages between NAMs, spacer moieties and branch-point nucleosides in the listed compounds are phosphorothioate esters. HEG=hexaethylene glycol; symmetrical doubler=1,3-diamino-2-propanol; trebler=modified pentaerythritol; T-C6=2′-deoxyuridine; AHA=aminohexyl-3(E)-acrylamido linked at the C-5 position of 2′-deoxyuridine (see FIG. 1A). The compounds were each tested both alone and formulated with cPLGA (see Example 9, supra).

[1] = solubility of spacer moiety measured as dialcohol precursor; assay type: physicochemical; settings: dodecyl spacer measured as dialcohol precursor; water solubility
Experimental: In addition, a spacer moiety that has low solubility, such as a dodecyl spacer (solubility <5 mg/ml when measured as dialcohol precursor 1,12-dihydroxydodecane) is not preferred because it can reduce the hydrophilicity and activity of the BIC. Preferably, spacer moieties have solubility much greater than 5 mg/ml (e.g., solubility at least about 20 mg/ml, at least about 50 mg/ml or at least about 100 mg/ml), e.g., when measured as dialcohol precursors. The form of the spacer moiety used for testing its water solubility is generally its most closely related unactivated and unprotected spacer precursor molecule.

Row | Molecule | IFN-α (pg/ml) 17240 (human PBMC cells) [pg/mL] | IFN-γ (pg/ml) 17240 (human PBMC cells) [pg/mL] | IFN-α (pg/ml) 17241 (human PBMC cells) [pg/mL] | IFN-γ (pg/ml) 17241 (human PBMC cells) [pg/mL] | IFN-α (pg/ml) 17242 (human PBMC cells) [pg/mL] | IFN-γ (pg/ml) 17242 (human PBMC cells) [pg/mL] | IFN-α (pg/ml) 17243 (human PBMC cells) [pg/mL] | IFN-γ (pg/ml) 17243 (human PBMC cells) [pg/mL] | IFN-α +PLGA (human PBMC cells) [pg/mL] | IFN-γ +PLGA (human PBMC cells) [pg/mL] | IFN-γ −PLGA (human PBMC cells) [pg/mL] | IFN-α (pg/ml) mean (human PBMC cells) [pg/mL] | IFN-α −PLGA (human PBMC cells) [pg/mL] | immunomodulatory activity compared with linear polynucleotide P-6 (human PBMC cells; PBMC assays, in words) | induction of IFN-γ and IFN-α compared with chimeric compounds (human PBMC cells; PBMC assays, in words) | solubility [1] [µg/mL]
1 | (5′-TCGACGT-3′-HEG)2-glycerol-HEG-5′-TCGACGT-3′ [C-101] | 2189 | 237 | 520 | 147 | 1071 | 73 | 293 | 142 | 5609 | 1323 | 150 | – | – | – | – | –
2 | (5′-TCGACGT3′-HEG)2-(T-C6 brancher)-HEG-5′-TCGACGT-3′ [B07 (#2)] | 1046 | 207 | 253 | 129 | 1365 | 48 | 520 | 158 | 8998 | 1016 | 135 | 796 | 796 | – | – | –
3 | 5′-TGACTGTGAACCTTAGAGATGA-3′ (DNA TGACTGTGAACCTTAGAGATGA; DNA, all phosphorothioate, methylation of C not given here) [P-7] | 30 | 35 | 30 | 127 | 30 | 10 | 30 | 58 | 30 | 34 | 58 | 30 | 30 | – | – | –
4 | (5-TCGACGT-3′-HEG)2-(T-C6)-AHA-HEG-5′-TCGACGT-3′ [B07] | 1080 | 205 | 122 | 108 | 1039 | 30 | 201 | 140 | 7298 | 883 | 121 | 610 | 610 | far superior immunomodulatory activity than the linear polynucleotide P-6 | activity similar to the immunomodulatory chimeric compounds C-101, C-124, and C-125 | –
5 | (5′-TAGTCAT-HEG)3-trebler-HEG-5′-TAGTCAT-3′ [M-102] | 30 | 34 | 30 | 24 | 30 | 10 | 30 | 45 | 85 | 61 | 28 | 30 | 30 | – | – | –
6 | (5′-TAGTCAT-3′-HEG)2-glycerol-HEG-5′-AACCTTC-3′ [M-100] | 30 | 27 | 30 | 71 | 30 | 10 | 30 | 41 | 69 | 136 | 37 | 30 | 30 | – | – | –
7 | (5′-TAGTCAT-3′-HEG)2-symmetrical doubler-HEG-5′-TAGTCAT-3′ [M-101] | 39 | 24 | 30 | 10 | 30 | 10 | 30 | 22 | 68 | 92 | 16 | 32 | 32 | – | – | –
8 | OCCCCCCCCCCCCO [1,12-dihydroxydodecane] | – | – | – | – | – | – | – | – | – | – | – | – | – | – | – | < 5000
9 | (5′-TCGACGT-3′-HEG)3-trebler-HEG-5′-TCGACGT-3′ [C-125] | 1519 | 253 | 67 | 136 | 1284 | 85 | 309 | 184 | 6348 | 889 | 165 | 795 | 795 | – | – | –
10 | (5′-TCGACGT-3′-HEG)2-symmetrical doubler-HEG-5′-TCGACGT-3′ [C-124] | 1048 | 303 | 239 | 155 | 1186 | 65 | 249 | 142 | 7017 | 2661 | 166 | 680 | 680 | – | – | –
11 | 5′-TGACTGTGAACGTTCGAGATGA-3′ [P-6] | 86 | 172 | 30 | 158 | 57 | 47 | 30 | 77 | 295 | 568 | 113 | 51 | 51 | – | – | –
